This is an account of results in US20220168252A1, “RETINOID DERIVATIVES WITH ANTITUMOR ACTIVITY” (BIOGEM S.C. A R.L., priority 2016, published 2022).

Series [1] concerns Human Adarotene-resistant NCI-H460 (R9A) NSCLC. In words: Anti-proliferative activity, H460-R9A, 24 h + 48 h recovery, SRB. Type of series: cell-based. As to conditions: 24 h exposure, read-out: IC50 ± SD H460-R9A. As for the experimental part:
(§1) Tumor cells were exposed for 24 h to new atypical retinoids (AR) and the anti-proliferative activity assessed upon 48 h recovery in drug-free medium with the SRB assay. RI=Resistance Index (ratio between the IC50 values of resistant and sensitive cells).

Another series relates to MM487-Luc mesothelioma. The experiment in a line: Anti-proliferative activity, MM487-Luc, 24 h + 48 h recovery, SRB. As to conditions: Homo sapiens, 24 h exposure, read-out: IC50 ± SD MM487-Luc. Type of series: cell-based. As for the experimental part: as §1
The subject of a further series is U87MG glioblastoma cells. The experiment in a line: Anti-proliferative activity, U87MG, 24 h + 48 h recovery, SRB. As to conditions: Homo sapiens, U-87 MG, 24 h exposure, read-out: IC50 ± SD U87MG. Type of series: cell-based. The method, then:
as §1

The subject of series [2] is Human Adarotene-resistant NCI-H460 (R9A) NSCLC. As to conditions: Zuco V. et al, Neoplasia 2005; cited from earlier work.
For series [3], the system named is H460-R9A retinoid resistant cells. In words: H460-R9A lung cancer subcutaneous xenograft in mice. As to conditions: Cisplatin 4 mg/kg IV q7dx4w, MIR002 50 mg/kg OS bid, qdx5/wx4w.
Method: CD-1 nude and NOG mice, females, 4-5 weeks-old, were housed under specific-pathogen-free conditions in individually ventilated cages.
Cells were cultured in appropriated media and expanded in a 37° C. incubator with saturated humidity and an atmosphere of 95% air and 5% CO2, and were sub-cultured every 2-3 days. Before the injection in mice, cells were checked with MycoAlert® Mycoplasma Detection Kit (Lonza) to exclude mycoplasma contamination, counted by trypan blue dye exclusion, evaluated for cell viability (>95%).
H-460-R9A lung cancer cells were suspended at a concentration of 25×10^6/ml. 5×10^6 tumor cells were suspended in 0.2 ml of M199, then inoculated subcutaneously on the right flank of each animal.
MIR002 was dissolved to a concentration of 3.3 mg/mL in 10% DMSO, 5% ethanol, 20% Kolliphor® EL and 65% Na2CO3 10 mM pH 11 and administered by gavage; Cisplatin was dissolved to a concentration of 0.8 mg/mL in sterile saline solution and administered intravenously.
Four days after inoculation, tumor masses of H460-R9A were measured in length and width using a Mitutoyo caliper, mice were sorted basing on tumor volume (TV) and treatments were started. Tumor volume was calculated as follows: TV (mm3)=(Length (mm)×Width (mm)2)/2. Tumor growth was followed by biweekly measurements. Tumor Growth Inhibition (TGI) for each group was calculated as follows: TGI (%)=100−(mean TVtreated/mean TVcontrol×100). Mice were weighed twice a week.
For another series, the system named is Human NCI-H460 NSCLC. The experiment in a line: Anti-proliferative activity, NCI-H460, 72 h, SRB. In kind it is cell-based. As to conditions: for IC50: Homo sapiens, NCI-H460, chronically exposed 72 h, SRB (Table 2), read-out: IC50 ± SD. As for the experimental part: The anti-proliferative activity of the POLA1/HDAC dual inhibitors MIR002 and GEM144 was assessed on various cell lines from solid and hematological cancers.
Human tumor cells were treated with POLA1/HDAC dual inhibitors and cell survival assessed upon 72 h with the SRB assay. HDAC=Histone Deacetylase. POLA1=DNA Polymerase Alpha 1. RI=Resistance Index.

The subject of series [4] is parent A2780 ovarian cancer cell line. The experiment in a line: Anti-proliferative activity, A2780, 24 h + 48 h recovery, SRB. Type of series: cell-based. As to conditions: Homo sapiens, 24 h exposure, read-out: IC50 ± SD A2780. The method, then: as §1
The test system of series [5] is A2780-Dx multidrug-resistant ovarian cancer cell line. The experiment in a line: Anti-proliferative activity, A2780-Dx, 24 h + 48 h recovery, SRB. As to conditions: for RI (Resistance Index, ratio between the IC50 values of resistant and sensitive cells): A2780-Dx vs A2780, 24 h exposure; for IC50: Homo sapiens, A2780/DX, 24 h exposure, SRB, read-out: IC50 ± SD A2780-Dx. In kind it is cell-based, Human. As for the experimental part:
as §1
As described by Zuco V. et al in Neoplasia, 2005 July; 7(7):667-77, H460-R9A are about 70 fold resistant with respect to parental H460 to Adarotene. […] Ovarian cancer A2780 and its clone derivative A2780DX (Doxorubicin resistant) which overexpress P-glycoprotein (PGP), were used to evaluate the possibility of these new molecules to be absorbed at intestinal level. In fact, the overexpression of PGP, as well known, drastically reduces the possibility, after oral administration, of absorption of several chemotherapeutic agents (i.e. Paclitaxel, doxorubicin etc.). Since the IC50 of the tested compounds in A2780 and A2780DX, have similar values we conclude that they are not PGP substrates and they could be administrated to the patients via oral route.

In a further series the test system is U87MG-Luc (Glioma). The experiment in a line: Orthotopic glioma murine model (U87MG-Luc), IVIS imaging. In kind it is in vivo, mice. As to conditions: 100 mg/kg IP, qdx5x4w, intracranial U87MG-Luc. The method, then:
Orthotopic glioma murine model. 1×10^6 Brain glioblastoma bioluminescent cells (U-87 MG) were injected intracranically and tumor growth was evaluated through IVIS imaging system.
Tumor growth was followed by biweekly measurements. […] Mice were weighed twice a week. […] Tumor growth was further followed by weekly BLI measurements. TGI was calculated as for the H460 trial.
The activity of compound 2 (RC1375) was evaluated on glioma xenograft murine models. Brain glioblastoma bioluminescent cells (U-87 MG) were injected intracranically and tumor growth was evaluated through IVIS imaging system. After a week of injection, 2 (RC1375) (100 mg/kg) was administered intraperitoneally to mice (qdx5x4w).

Where a name gives a salt, the structure may show the parent alone.

In general, IC50 refers to the midpoint of a concentration-inhibition curve. In the case of `O=C(O)/C=C/c1ccc(-c2ccc(O)c(C34CC5CC(CC(C5)C3)C4)c2)cc1` [Adarotene, reference compound], the IC50 in [1] was found to be 26.9 ± 0.7 µM; in the series on MM487-Luc mesothelioma, 9.2 ± 0.3 µM; with U87MG glioblastoma cells it was 1.63 ± 0.1 µM. Further, the “resistance of H460-R9A with respect to parental H460” value in [2] was “about 70 fold”. In addition, the “BWL Day + 35” value in series [3] (Adarotene 15 mg/Kg OS q7dx5x4w) was found to be 12%.

With `CC(C)(Oc1ccc(-c2ccc(/C=C/C(=O)O)cc2)cc1C12CC3CC(CC(C3)C1)C2)C(=O)NO` [BIO146], the “cytotoxic activity / IC50 range on NCI-H460 cells” value in the series with Human NCI-H460 NSCLC (72 h, SRB/MTT assay) is given as “micro molar range”.

In the case of `N.N.[Cl][Pt][Cl]` [Cisplatin, reference compound], the “TGI Day + 35” value in series [3] (combination same doses) is on record as 34%.

`O=C(O)/C=C/c1ccc(-c2ccc(OCCCC(=O)NO)c(C34CC5CC(CC(C5)C3)C4)c2)cc1` [Compound 1, 3-[3′-Adamantan-1-yl-4′-(3-hydroxycarbamoyl-propoxy)-biphenyl-4-yl]-acrylic acid]: the half-inhibitory concentration (IC50) is less than 5 µM in the series on Human NCI-H460 NSCLC; 8.3 ± 0.2 µM in series [1]; 1.7 ± 0.08 µM in the series on MM487-Luc mesothelioma; 4.2 ± 0.3 µM in [4]; 3.9 ± 0.1 µM in [5]. In addition, in series [5], the “RI (Resistance Index, ratio between the IC50 values of resistant and sensitive cells)” value is listed as 0.9.

What is called melting point is the temperature of the solid-liquid transition. As for `O=C(O)/C=C/c1ccc(-c2ccc(OCCCCC(=O)NO)c(C34CC5CC(CC(C5)C3)C4)c2)cc1` [Compound 2, 3-[3′-Adamantan-1-yl-4′-(4-hydroxycarbamoyl-butoxy)-biphenyl-4-yl]-acrylic acid], the melting point was 224 °C (dec.). Moreover, in the series with Human NCI-H460 NSCLC, the IC50 is less than 5 µM. In series [1], the IC50 was 5.9 ± 0.1 µM. The IC50 with MM487-Luc mesothelioma was 1.9 ± 0.2 µM. In the series with U87MG glioblastoma cells, the concentration for half-maximal inhibition (IC50) came to 5.5 ± 0.9 µM. Moreover, the IC50 in series [4] was 3.7 ± 0.3 µM. Also, in series [5], the “RI (Resistance Index, ratio between the IC50 values of resistant and sensitive cells)” value stood at 1.3; the concentration for half-maximal inhibition (IC50) amounted to 4.5 ± 0.07 µM. The “BLI Average (Day)” value in the series on U87MG-Luc (Glioma) (day +35) was 1.31 × 10^5 ± 1.26 × 10^5 p/s/cm^2/sr. The same molecule returned a TGI in the series with U87MG-Luc (Glioma) of 72%.

Take `O=C(O)C=Cc1ccc(-c2ccc(OCCCCCCCC(=O)NO)c(C34CC5CC(CC(C5)C3)C4)c2)cc1` [Compound 3, 3-[3′-Adamantan-1-yl-4′-(7-hydroxycarbamoyl-heptyloxy)-biphenyl-4-yl]-acrylic acid]: the IC50 in the series with Human NCI-H460 NSCLC was no more than 5 µM.

With `NCCSSCCNC(=O)CCCOc1ccc(-c2ccc(/C=C/C(=O)O)cc2)cc1C12CC3CC(CC(C3)C1)C2` [Compound 4, 2-(2-{4-[3-Adamantan-1-yl-4′-(2-carboxy-vinyl)-biphenyl-4-yloxy]-butyrylamino}-ethyldisulfanyl)-ethyl-ammonium; trifluoroacetate], the half-inhibitory concentration (IC50) in the series with Human NCI-H460 NSCLC is no more than 10 µM.

With `O=C(O)/C=C/c1ccc(-c2ccc(OCCCC(=O)NCCSSCCNC(=O)C(Cc3ccc(O)c(Br)c3)=NO)c(C34CC5CC(CC(C5)C3)C4)c2)cc1` [Compound 5, 3-{3′-Adamantan-1-yl-4′-[3-(2-{2-[3-(3-bromo-4-hydroxy-phenyl)-2-hydroxyimino-propionylamino]-ethyldisulfanyl}-ethylcarbamoyl)-propoxy]-biphenyl-4-yl}-acrylic acid], the half-maximal inhibitory concentration (IC50) with Human NCI-H460 NSCLC is less than 5 µM.

Turning to `O=C(O)/C=C/c1ccc(-c2ccc(OC(=O)CCC(=O)NCCSSCCNC(=O)/C(Cc3ccc(O)c(Br)c3)=N/O)c(C34CC5CC(CC(C5)C3)C4)c2)cc1` [Compound 6, 3-{3′-Adamantan-1-yl-4′-[3-(2-{2-[3-(3-bromo-4-hydroxy-phenyl)-2-hydroxyimino-propionylamino]-ethyldisulfanyl}-ethylcarbamoyl)-propionyloxy]-biphenyl-4-yl}-acrylic acid], in the series on Human NCI-H460 NSCLC, the IC50 was less than 0.1 µM.

In the case of `O=C(O)/C=C/c1ccc(-c2ccc(OCCC(=O)NO)c(C34CC5CC(CC(C5)C3)C4)c2)cc1` [Compound 12, 3-[3′-Adamantan-1-yl-4′-(2-hydroxycarbamoyl-ethoxy)-biphenyl-4-yl]-acrylic acid], the half-inhibitory concentration (IC50) in series [1] was 10.6 ± 0.3 µM.

Regarding `O=C(COc1ccc(-c2ccc3cc(C(=O)O)ccc3c2)cc1C12CC3CC(CC(C3)C1)C2)NOC1CCCCO1` (stereo not shown) [Compound 13, 6-{3-Adamantan-1-yl-4-[(tetrahydro-pyran-2-yloxycarbamoyl)-methoxy]-phenyl}-naphthalene-2-carboxylic acid], the IC50 in [1] was 16.9 ± 0.5 µM.

Take `O=C(COc1ccc(-c2ccc3cc(C(=O)O)ccc3c2)cc1C12CC3CC(CC(C3)C1)C2)NO` [Compound 14, 6-(3-Adamantan-1-yl-4-hydroxycarbamoylmethoxy-phenyl)-naphthalene-2-carboxylic acid]: the IC50 in series [1] was 2.3 ± 0.4 µM.

For the molecule `NNC(=O)COc1ccc(-c2ccc(C=CC(=O)O)cc2)cc1C12CC3CC(CC(C3)C1)C2` [Compound 17, 3-(3′-adamantan-1-yl-4′-hydrazinocarbonylmethoxy-biphenyl-4-yl)-acrylic acid trifluoroacetate], in [1], the IC50 worked out at 17.3 ± 1.3 µM.
